Measured values from patent publication US20090131356A1, “miR-15, miR-26, miR-31, miR-145, miR-147, miR-188, miR-215, miR-216, miR-331, mmu-miR-292-3P REGULATED GENES AND PATHWAYS AS TARGETS FOR THERAPEUTIC INTERVENTION” (ASURAGEN, INC., priority 2006, published 2009).

What was measured:
[1] = test system: Du145 human prostate cancer cells; experiment: Long-term growth curve with repeated electroporation, Du145; type: cell-based; settings: 1.6 μM miRNA electroporated, repeated on days 7 and 14, day 20
Protocol: The inventors assessed the therapeutic effect of hsa-miR-15a for prostate cancer by using the Du145 human prostate cancer cell line, derived from a brain metastasis (Stone et al., 1978). The inventors conducted growth curve experiments in the presence of miRNA for up to 20 days. Since in vitro transfections of naked interfering RNAs, such as synthetic miRNA, are transient by nature and compromised by the dilution of the miRNA during ongoing cell divisions, miRNA was administered at multiple time points (Bartlett et al., 2006; Bartlett et al., 2007). To accommodate miRNA delivery into a large quantity of cells, the inventors employed the electroporation method for delivery of hsa-miR-15a or negative control miRNA into Du145 human prostate cancer cells. Briefly, 0.5×10^6 Du145 cells were electroporated with 1.6 μM hsa-miR-15a or negative control using the BioRad Gene Pulser Xcell™ instrument (BioRad Laboratories Inc., Hercules, Calif., USA), seeded and propagated in regular growth medium. Experiments were carried out in triplicates. When the control cells reached confluence (days 7 and 14), cells were harvested, counted and electroporated again with the respective miRNAs. To ensure similar treatment of both conditions as well as to accommodate exponential growth, the cell numbers used for the second and third electroporation were titrated down to the lowest count. The population doubling was calculated from these electroporation events using the formula PD=ln(Nf/N0)/ln2 and adjusting for the fact that approximately 72% of newly seeded cells adhere to the plate. Cell counts were extrapolated and plotted on a linear scale (FIG. 10). Arrows represent electroporation days. Standard deviations are included in the graphs.
To evaluate the therapeutic activity of hsa-miR-147 over an extended period of time, the inventors conducted growth curve experiments in the presence of miRNA for up to 21 days. Since in vitro transfections of naked interfering RNAs, such as synthetic miRNA, are transient by nature and compromised by the dilution of the oligo during ongoing cell divisions, miRNA was administered at multiple time points (Bartlett et al., 2006; Bartlett et al., 2007). To accommodate miRNA delivery into a large quantity of cells, the inventors employed the electroporation method to delivery hsa-miR-147 or negative control miRNA into PC3 and Du145 human prostate cancer cells. […] When the control cells reached confluence (days 7 and 14), cells were harvested, counted and electroporated again with the respective miRNAs. […] The population doubling was calculated from these electroporation events using the formula PD=ln(Nf/N0)/ln2 and adjusting for the fact that approximately 72% of newly seeded cells adhere to the plate. […]

[2] = test system: human H460 lung cancer xenografts; experiment: Established H460 lung tumor xenograft, intratumoral injection of lipid-formulated miRNA; type: in vivo, NOD/SCID mice; settings: intratumoral 6.25 μg on days 11, 14 and 17, siPORT amine formulation; day 19
Excerpt: Delivery of hsa-miR-147 into human lung cancer cells prior to implantation into the animal inhibited the formation of lung tumor xenografts. […] To explore this possibility, 3×10^6 human H460 non-small cell lung cancer cells were mixed with BD Matrigel™, (BD Biosciences; San Jose, Calif., USA; cat. no. 356237) in a 1:1 ratio and subcutaneously injected into the lower back of each of 23 NOD/SCID mice (Charles River Laboratories, Inc.; Wilmington, Mass., USA). Once animals developed palpable tumors (day 11 post xenograft implantation), each animal in a group of six received intratumoral injections of 6.25 μg hsa-miR-147 (Dharmacon, Lafayette, Colo.) formulated with the lipid-based siPORT™ amine delivery agent (Ambion, Austin, Tex.; cat. no. AM4502) on days 11, 14 and 17. A control group of six animals each received intratumoral injections of 6.25 μg negative control miRNA (NC; Dharmacon, Lafayette, Colo.), following the same injection schedule that was used for hsa-miR-147. Given an average mouse weight of 20 g, this dose equals 0.3125 mg/kg. […] Caliper measurements of tumors were taken every 1-2 days, and tumor volumes were calculated using the formula, Volume=length×width×width/2, in which the length is greater than the width.

In the case of “hsa-miR-147: Synthetic pre-miR-147 (Ambion AM17100; Dharmacon in vivo); mature sequence GUGUGUGGAAAUGCUUCUGC, MIMAT0000251, SEQ ID NO:114 (synthetic pre-miR (Ambion/Dharmacon), chemistry not given here; listed as Homo sapiens)”, the “cells relative to cells electroporated with negative control miRNA” value [1] is reported as 2.90%, the “inhibition of Du145 cell growth” value ([1]; relative to proliferation of control cells (100%)) is reported as 97.1% and the average tumor size [2] is reported as 260 mm^3.
